Source: the supplement of paper PMC10307832

Assays:
Experiment in all cases: relative viability (nuclei count vs DMSO), 5 days (fraction); higher = more cells survive
[1] = compound: C1COCCN1C2=NC(=NC3=C2OC4=C3C=CC=N4)C5=CC(=CC=C5)NC(=O)C6=CN=C(C=C6)N
Procedure, shortened: (§1)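 Acceptance criteria were a control CV below 25% and at least one doubling per plate. Lung cancer cell lines in 1536-well plates got five library-drug doses (not always all listed) √10 apart by pinning and were left 5 days with no medium change. Viability divides treated-well nuclei by vehicle-well nuclei and is the median across plates. Nuclei were counted by MetaXpress from 4× Hoechst images.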

[2] = compound: Nc1ccccc1NC(=O)c1ccc(CNC(=O)OCc2cccnc2)cc1 [Entinostat]
Procedure, shortened: as §1

[3] = compound: CN1CCC(CNc2ccc3ncc(-c4cccc(OC(F)(F)F)c4)n3n2)CC1 [SGI-1776]
Procedure, shortened: as §1

[4] = compound: C1COCCN1C2=NC(=NC3=C2OC4=C3C=CC=N4)C5=CC(=CC=C5)NC(=O)C6=CN=C(C=C6)N + Cc1nc(NC(=O)N2CCC[C@H]2C(N)=O)sc1-c1ccnc(C(C)(C)C(F)(F)F)c1 [Alpelisib] (partner 2 µM)
Procedure, shortened: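 Relative viability was taken as the ratio of nuclei in treated wells to nuclei in vehicle wells. Lung cancer cell lines in 1536-well plates received compounds by pin tool one day after seeding, either one drug alone or a fixed anchor-drug dose plus five library-drug doses (not always all listed) in √10 steps. Nuclei were counted on 4× images after 5 days of treatment, and values are medians of duplicate plates.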

Cell Line	relative viability ([1]; 0.02 µM)	relative viability ([1]; 0.06325 µM)	relative viability ([1]; 0.2 µM)	relative viability ([1]; 0.6325 µM)	relative viability ([1]; 2 µM)	relative viability ([2]; 0.02 µM)	relative viability ([2]; 0.06325 µM)	relative viability ([2]; 0.2 µM)	relative viability ([2]; 0.6325 µM)	relative viability ([2]; 2 µM)	relative viability ([3]; 0.08 µM)	relative viability ([3]; 0.8 µM)	relative viability ([3]; 2.53 µM)	relative viability ([3]; 8 µM)	relative viability ([4]; first compound 0.02 µM)	relative viability ([4]; first compound 0.06325 µM)	relative viability ([4]; first compound 0.2 µM)	relative viability ([4]; first compound 0.6325 µM)	relative viability ([4]; first compound 2 µM)
NCI-H1563	0.938	0.992	0.859	0.786	0.758	0.938	0.959	0.887	0.816	0.776	1	1.05	0.925	0.756	0.886	0.871	0.855	0.843	0.729
SK-MES-1	1.02	1.08	0.925	0.868	0.673	1.01	1.15	1.19	1.02	0.701	1.06	1.07	1	0.868	0.949	1.07	0.984	0.971	0.724
NCI-H3122	1.03	1.01	1.01	1.05	0.862	1	1.03	1.02	0.959	0.677	1.03	0.99	1.04	1.05	0.808	0.798	0.681	0.772	0.676
NCI-H2085	0.936	1.03	1.01	0.946	0.75	0.98	0.974	1	0.756	0.559	0.95	1.07	1.03	0.9	0.956	0.988	0.926	0.909	0.596
PC-14	0.974	1.14	1.03	0.852	0.525	1.08	1.11	1.06	0.424	0.14	1.09	1.03	0.972	0.491	0.881	1.21	0.917	0.916	0.577
NCI-H1355	0.967	1.04	0.998	0.959	0.888	0.975	0.918	0.823	0.638	0.523	1.01	1.06	0.994	0.888	0.833	0.933	0.858	0.747	0.759
NCI-H727	0.973	1.1	0.878	0.9	1.02	0.892	0.895	0.887	0.614	0.545	0.976	1.02	1.01	0.852	0.472	0.418	0.51	0.693	0.341
NCI-H1755	0.997	1.06	0.999	0.956	0.841	0.98	0.94	0.927	0.665	0.467	0.954	0.993	0.945	0.819	1.07	1	0.965	0.863	0.397
